Data: ChEMBL document CHEMBL5226312, “Structural Evolution and Translational Potential for Agonists and Antagonists of Endosomal Toll-like Receptors” (J Med Chem, 2021)

Assays:
[1] = Antagonist activity at mouse CpG-oligonucleotide in mouse WEHI-231 cells assessed as inhibition of CpG-oligonucleotide induced thymidine uptake preincubated for 16 hrs followed by 3H-thymidine addition and measured after 4 hrs in presence of anti-serum IgM by radioactivity analysis; format: cell-based; settings: WEHI231
[2] = Antagonist activity at mouse CpG-oligonucleotide in mouse WEHI-231 cells assessed as inhibition of CpG-oligonucleotide induced thymidine uptake in presence of anti-serum IgM; format: cell-based; settings: WEHI231
[3] = Antagonist activity at monkey TLR7 expressed in Drosophila S2 cells by ITC analysis; set-up: species or system Macaca mulatta
Splenocyte = assay: Induction IFN production in C3H/HeJ mouse Splenocytes measured after 18 hrs; format: functional; settings: read-out: MEC
Toll-like receptor 7 = biological target: T1, Toll-like receptor 7 (Homo sapiens, UniProt Q9NYK1); assay: Agonist activity at human TLR7
T1 sequence (Q9NYK1 whole entry): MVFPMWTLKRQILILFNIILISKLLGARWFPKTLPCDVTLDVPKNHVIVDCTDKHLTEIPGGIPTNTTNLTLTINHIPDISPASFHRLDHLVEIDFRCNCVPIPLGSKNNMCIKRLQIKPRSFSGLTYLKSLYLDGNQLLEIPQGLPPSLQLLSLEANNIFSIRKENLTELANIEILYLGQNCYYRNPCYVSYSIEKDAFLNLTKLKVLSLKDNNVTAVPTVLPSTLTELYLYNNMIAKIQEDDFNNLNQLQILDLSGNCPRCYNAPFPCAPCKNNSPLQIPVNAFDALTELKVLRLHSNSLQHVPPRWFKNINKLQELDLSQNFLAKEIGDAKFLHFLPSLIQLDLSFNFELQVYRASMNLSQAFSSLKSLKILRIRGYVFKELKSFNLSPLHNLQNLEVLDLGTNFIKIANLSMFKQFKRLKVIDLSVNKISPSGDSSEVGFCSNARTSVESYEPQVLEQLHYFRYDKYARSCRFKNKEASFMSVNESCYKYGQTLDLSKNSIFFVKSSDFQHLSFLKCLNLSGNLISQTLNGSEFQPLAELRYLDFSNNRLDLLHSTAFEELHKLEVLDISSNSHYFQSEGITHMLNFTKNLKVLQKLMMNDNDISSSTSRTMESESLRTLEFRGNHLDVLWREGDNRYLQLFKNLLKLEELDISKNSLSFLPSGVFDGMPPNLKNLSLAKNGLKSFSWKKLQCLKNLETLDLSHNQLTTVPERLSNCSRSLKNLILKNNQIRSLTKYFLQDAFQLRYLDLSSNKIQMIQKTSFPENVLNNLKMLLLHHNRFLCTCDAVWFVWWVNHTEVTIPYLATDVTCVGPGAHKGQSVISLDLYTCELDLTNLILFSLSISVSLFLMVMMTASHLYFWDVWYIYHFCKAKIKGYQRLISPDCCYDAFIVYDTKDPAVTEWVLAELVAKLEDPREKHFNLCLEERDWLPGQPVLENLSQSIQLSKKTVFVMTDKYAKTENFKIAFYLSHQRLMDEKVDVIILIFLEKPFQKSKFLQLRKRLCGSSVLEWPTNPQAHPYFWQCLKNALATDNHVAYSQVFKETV

Toll-like receptor 8 = biological target: T2, Toll-like receptor 8 (Homo sapiens, UniProt Q9NR97); assay: Agonist activity at human TLR8 stably expressed in human HEK-Blue hTLR8 cells assessed as activation of NFkappaB by SAP reporter gene based spectrophotometric assay; format: cell-based
T2 sequence (Q9NR97 whole entry): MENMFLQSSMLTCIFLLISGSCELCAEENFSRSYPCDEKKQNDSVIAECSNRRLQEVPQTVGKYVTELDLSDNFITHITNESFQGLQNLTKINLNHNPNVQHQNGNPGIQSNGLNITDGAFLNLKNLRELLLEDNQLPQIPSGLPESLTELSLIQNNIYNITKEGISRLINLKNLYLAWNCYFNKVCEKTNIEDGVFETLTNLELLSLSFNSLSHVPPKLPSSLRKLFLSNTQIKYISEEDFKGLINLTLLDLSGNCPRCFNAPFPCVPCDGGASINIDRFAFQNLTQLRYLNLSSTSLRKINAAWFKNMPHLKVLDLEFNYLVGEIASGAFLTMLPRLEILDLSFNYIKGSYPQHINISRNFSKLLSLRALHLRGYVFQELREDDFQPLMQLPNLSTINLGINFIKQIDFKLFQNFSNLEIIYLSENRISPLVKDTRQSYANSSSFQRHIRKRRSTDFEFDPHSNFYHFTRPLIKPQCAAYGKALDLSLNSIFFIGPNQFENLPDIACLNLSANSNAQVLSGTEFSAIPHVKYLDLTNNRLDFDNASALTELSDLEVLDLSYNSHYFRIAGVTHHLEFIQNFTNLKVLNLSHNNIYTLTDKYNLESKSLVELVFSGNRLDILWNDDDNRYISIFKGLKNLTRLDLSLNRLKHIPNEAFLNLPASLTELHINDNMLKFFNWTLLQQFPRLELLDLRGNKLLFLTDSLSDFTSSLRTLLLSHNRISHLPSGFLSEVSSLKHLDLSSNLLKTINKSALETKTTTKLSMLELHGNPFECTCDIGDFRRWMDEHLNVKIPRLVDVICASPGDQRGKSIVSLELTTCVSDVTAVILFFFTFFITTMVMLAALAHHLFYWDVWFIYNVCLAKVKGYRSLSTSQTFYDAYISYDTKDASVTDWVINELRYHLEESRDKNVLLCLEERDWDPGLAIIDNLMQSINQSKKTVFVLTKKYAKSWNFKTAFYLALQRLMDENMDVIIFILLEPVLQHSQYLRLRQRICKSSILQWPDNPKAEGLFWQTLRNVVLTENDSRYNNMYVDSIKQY

Q: Which EC50 [1] does the source give for CN(C)CCNc1cc(-c2ccc(CN3CCN(C)CC3)cc2)nc2ccccc12 here?
A: The EC50 was 0.00707 µM.

Q: Which EC50 [2] does the source give for CN(C)CCNc1cc(-c2ccc3ccccc3c2)nc2ccccc12 here?
A: The EC50 was 0.0091 µM.

Q: Which IC50 [3] does the source give for CCOc1nc(N)c2nc(-c3cncc(F)c3)n(Cc3ccc(CN4C[C@H]5C[C@@H]4CN5C)cc3)c2n1 here?
A: The IC50 was 0.025 µM.

Q: For CCCCCc1nc(N)c2[nH]c(=O)n(Cc3ccccc3)c2n1, which minimal effective concentration (Splenocyte) is on record?
A: Its minimal effective concentration is 0.01 µM.

Q: With CN1CCN(Cc2ccc(-c3cc(N4CCN(C)CC4)c4ccccc4n3)cc2)CC1 as the compound, how does the EC50 [1] read?
A: Its EC50 is 0.058 µM.

Q: Which EC50 [1] does the source give for CN(C)CCNc1cc(-c2ccc(N3CCN(C)CC3)cc2)nc2ccccc12 here?
A: Its EC50 is 0.00076 µM.

Q: Which EC50 [2] does the source give for CN1CCN(Cc2cc(Nc3cc(-c4ccc5ccccc5c4)nc4ccccc34)cc(CN3CCN(C)CC3)c2O)CC1 here?
A: The EC50 was 0.00024 µM.

Q: For CCOc1nc(C)c2nc(-c3cncc(F)c3)n(Cc3ccc(CN4C[C@H]5C[C@@H]4CN5C)cc3)c2n1, which IC50 [3] is on record?
A: Its IC50 is 0.025 µM.

Q: For CCN(CC)CCCC(C)Nc1cc(-c2ccccc2)nc2ccccc12 (centres undefined), which EC50 [2] is on record?
A: The EC50 was 0.0513 µM.

Q: Which EC50 [2] does the source give for CCN(CC)CCCC(C)Nc1ccnc2cc(Cl)ccc12 (centres undefined) [CHLOROQUINE] here?
A: The EC50 was 0.11 µM.

Q: With CCCCOc1nc(N)c2nc(S)n(Cc3ccccc3)c2n1 as the compound, how does the minimal effective concentration (Splenocyte) read?
A: Its minimal effective concentration is 0.001 µM.

Q: With CCCCOc1nc(N)c2[nH]c(=O)n(Cc3ccccc3)c2n1 as the compound, how does the minimal effective concentration (Splenocyte) read?
A: Its minimal effective concentration is 0.001 µM.

Q: With CC(C)Cn1cnc2c(N)nc3ccccc3c21 [IMIQUIMOD] as the compound, how does the EC50 (Toll-like receptor 7) read?
A: Its EC50 is 2.21 µM.

Q: Which EC50 (Toll-like receptor 8) does the source give for CCCCc1nc2c(N)nc3ccccc3c2s1 here?
A: The EC50 was 0.41 µM.
